Experimental data reported in US20240254199A1, “MODIFIED MAMMALIAN CELLS” (Genentech, Inc., priority 2021, published 2024).

What was measured:
Type in all cases: cell-based, Chinese hamster
PDGFRa = PDGFRa protein (western blot) and mRNA (qPCR) levels upon chemical UPR induction; conditions: seed train, mAb1-expressing CHO DG44 and CHO-K1, optimal pH
Experimental: 1.5 million cells were lysed in 1× NP40 buffer (10 mM Tris, pH 8.0, 0.5% NP40, 150 mM NaCl, 10 mM DTT and 5 mM MgCl2) containing protease inhibitor cocktails (Roche EDTA free mini-tablets cocktail) for 20 min on ice. Lysates were subjected to sodium dodecyl sulfate-polyacrylamide gel electrophoresis (SDS-PAGE) (4-12% Tris glycine) and transferred to nitrocellulose membrane. After blocking with 5% milk in tris-buffered saline (TBS)-0.1% Tween buffer, the membranes were blotted with respective antibodies. Blots were visualized using HRP-conjugated anti-rabbit anti-body and SuperSignal West Dura Extended Duration Substrate. The following inhibitors were used: ATF6i (10 μM Ceapin-A7 (Gallagher, et al., 2016)), PERKi (10 μM Compound 39 (Axten, et al., 2012)), IRE1i6 (10 μM 4u8c (Cross, et al., 2012)), IRE1i9 (10 μM in-house/Genentech), PDGFRi (5-20 μM Abcam, AG-1296). […]
An interesting phenomenon was previously described where activation of UPR in seed train culture, triggered by lower pH conditions in a particular CHO cell line, negatively affected culture growth in production media at target pH (Tung, et al., 2018). When exposed to low pH conditions, high intracellular BiP levels were detected in this cell line that correlated to low growth profiles during production and poor bioprocess outcomes (Tung, et al., 2018). […]

empty host CHO-K1 cells = experiment: Seed train growth of empty host CHO-K1 cells with PDGFRa inhibitor and/or insulin
Experimental: 1.5 million cells were lysed in 1× NP40 buffer (10 mM Tris, pH 8.0, 0.5% NP40, 150 mM NaCl, 10 mM DTT and 5 mM MgCl2) containing protease inhibitor cocktails (Roche EDTA free mini-tablets cocktail) for 20 min on ice. Lysates were subjected to sodium dodecyl sulfate-polyacrylamide gel electrophoresis (SDS-PAGE) (4-12% Tris glycine) and transferred to nitrocellulose membrane. After blocking with 5% milk in tris-buffered saline (TBS)-0.1% Tween buffer, the membranes were blotted with respective antibodies. Blots were visualized using HRP-conjugated anti-rabbit anti-body and SuperSignal West Dura Extended Duration Substrate. The following inhibitors were used: ATF6i (10 μM Ceapin-A7 (Gallagher, et al., 2016)), PERKi (10 μM Compound 39 (Axten, et al., 2012)), IRE1i6 (10 μM 4u8c (Cross, et al., 2012)), IRE1i9 (10 μM in-house/Genentech), PDGFRi (5-20 μM Abcam, AG-1296). The following antibodies were used: anti-PDGFRa (Cell Signaling Technology (CST), D1E1E), rabbit anti-BiP (C50B12, Cell Signaling Technology, 3177), rabbit anti-PERK (CST, C33E10), mouse anti-o-actin-HRP (AC-15) (Abcam, ab49900), rabbit anti-phospho-Akt (Ser473) (CST, D9E), rabbit anti-Akt (CST, 5G3), rabbit cleaved caspase3 (CST, asp175), goat anti-human IgG-HRP (MP Biomedicals, 0855252), rabbit IRE1a (CST, 14C10), mouse anti-phospho-IRE1, mouse anti-XBP1, rabbit anti-Bax (Abcam, ab32503), rabbit anti-Bak (CST, D4E4), donkey anti-rabbit HRP (Jackson ImmunoResearch Laboratories, Inc., 711-035-152), rabbit anti-sod2 (CST, D3×8F)
(§1) It was previously shown that UPR-induced poor growth profiles correlated with a decrease in PDGFRa levels (FIGS. 19A and 19B) (Tung, et al., 2018). PDGFRa and insulin signaling pathways have overlapping downstream targets (FIG. 21A), however insulin signaling negatively regulates PDGFRa signaling (Cirri, et al., 2005). […]

[1] = system: mAb2-expressing CHO-K1 cells; experiment: Fed-batch production of mAb2-expressing CHO cell line with PDGFRa inhibitor and/or insulin; conditions: added on Day 3 of fed-batch production
Experimental: Fed-batch production cultures were performed as disclosed here and below in Example 2, with proprietary chemically defined medium using different vessels (e.g., tube-spin and AMBR15) along with bolus feeds on Days 3, 7 and 10 as previously mentioned (Hsu, Aulakh, Traul, & Yuk, 2012). Anti-cell aggregation agent was used in all cultures during production assay to prevent cell aggregation due to the release of DNA from dying cells. Cells were seeded at low (1-2×10^6 cells/mL) or high (10×10^6 cells/mL) seeding densities using lean or rich production media. Cultures were temperature shifted from 37° C. to 35° C. on Day 3. Titers were determined using Protein-A affinity chromatography with UV detection. Percent viability and viable cell count were determined using a Vi-Cell XR instrument (Beckman Coulter Item #383721).
as §1

Compound | PDGFRa levels (protein and mRNA) (PDGFRa) | reduction of cell growth (empty host CHO-K1 cells; 20 μM, empty host CHO-K1 cells, seed train media, 4 days) | cell growth and viability in fed-batch production [1] | Akt phosphorylation (empty host CHO-K1 cells; insulin added to cultures with PDGFRa inhibitor, western blot) | cellular growth of cultures treated with the PDGFRa inhibitor (empty host CHO-K1 cells; insulin added to seed train cultures with PDGFRa inhibitor)
Tunicamycin | reduced at both the protein and mRNA levels | – | – | – | –
COc1cc2ncc(-c3ccccc3)nc2cc1OC [PDGFRa inhibitor, AG-1296] | – | approximately 50% | significantly decreased cell growth, without affecting cell viability | – | –
insulin | – | – | partially rescued the observed cell growth inhibition | increased Akt phosphorylation | partially rescued cellular growth
